# Measurements published in article PMC9655618 (Cancers, 2022).
# Experiments:
# [1] = test system: BT-549 cells; assay: MTT cell viability assay; format: cell-based, human; conditions: Homo sapiens, BT-549, 72 h, 10%FBS growth media
# Method: (§1) Straightforward, the tetrazolium salt 3-(4,5-methyltiazol-2yl-)-2,5diphenyl-tetrazolium bromide (MTT) (Applichen, Darmstadt, Germany) was added to cells, incubated for 2–4 h at 37 °C, and lysed in 10% SDS.
# [2] = test system: Hs-578T cells; assay: MTT cell viability assay; format: cell-based, human; conditions: Homo sapiens, Hs-578T, 72 h, 10%FBS growth media
# Method: as §1
# [3] = test system: Ishikawa cells; assay: MTT cell viability assay; format: cell-based, human; conditions: Homo sapiens, Ishikawa, read-out: IC50 (μM) ISHIKAWA, 72 h, 10%FBS growth media
# Method: as §1
# [4] = test system: MCF-10A cells; assay: MTT cell viability assay; format: cell-based, human; conditions: Homo sapiens, MCF-10A, 72 h, 10%FBS growth media
# Method: as §1
# [5] = test system: MCF-7 cells; assay: MTT cell viability assay; format: cell-based, human; conditions: Homo sapiens, MCF7, 72 h, 10%FBS growth media
# Method: as §1
# [6] = test system: MCF-7/BUS cells; assay: MTT cell viability assay; format: cell-based, human; conditions: Homo sapiens, MCF7/BUS; 72 h, 10%FBS growth media, MTT; read-out: IC50 (μM) MCF-7/BUS
# Method: as §1
# [7] = test system: MDA-MB-231 cells; assay: MTT cell viability assay; format: cell-based, human; conditions: Homo sapiens, MDA-MB-231, 72 h, 10%FBS growth media
# Method: as §1
# [8] = test system: SK-BR-3 cells; assay: MTT cell viability assay; format: cell-based, human; conditions: Homo sapiens, SK-BR-3, 72 h, 10%FBS growth media
# Method: as §1
# [9] = test system: T47D cells; assay: MTT cell viability assay; format: cell-based, human; conditions: Homo sapiens, T47D, 72 h, 10%FBS growth media
# Method: (§2) Straightforward, the tetrazolium salt 3-(4,5-methyltiazol-2yl-)-2,5diphenyl-tetrazolium bromide (MTT) (Applichen, Darmstadt, Germany) was added to cells, incubated for 2–4 h at 37 °C, and lysed in 10% SDS. The mitochondrial metabolization of the tetrazolium salt was determined by the analysis of the optical density at 595 nm, measured with the iMark microplate Reader (Bio–Rad, Irvine, CA, USA).
# [10] = test system: VERO cells; assay: MTT cell viability assay; format: cell-based, monkey; conditions: Primates, Vero, 72 h, 10%FBS growth media
# Method: as §1
# [11] = test system: PBMC; assay: MTT cell viability assay; format: cell-based; conditions: Homo sapiens, 72 h, 10%FBS growth media
# Method: as §1
# [12] = test system: ER+ cancer cells (i.e., MCF-7, MCF-7/BUS, T47D and Ishikawa cells); assay: MTT cell viability, summary over ER+ cancer cells; format: cell-based; conditions: Homo sapiens, read-out: IC50, viability of ER+ cancer cells, E2-non-depleted cells, text summary of Table 1 over MCF-7, MCF-7/BUS
# Method: as §2
# [13] = test system: STAT3 transcriptional activity in HEK293 cells; assay: IL6-induced STAT3 transcriptional activity, Renilla reporter HEK-293 cells; conditions: hIL6 10 ng/ml
Molecule,IC50 [1] [µM],IC50 [2] [µM],IC50 [3] [µM],IC50 [4] [µM],IC50 [5] [µM],IC50 [6] [µM],IC50 [7] [µM],IC50 [8] [µM],IC50 [9] [µM],IC50 [10] [µM],IC50 [11] [µM],IC50 [12] [nM],maximal luciferase activity or Emax [13] [fold induction]
"COc1cccc2c1C(=O)c1c(O)c3c(c(O)c1C2=O)C[C@@](O)(C(=O)CO)C[C@@H]3O[C@H]1C[C@H](N)[C@H](O)[C@H](C)O1 [DOXO, doxorubicin, reference compound]",0.19 ± 0.04,0.37 ± 0.05,0.09 ± 0.03,0.09 ± 0.01,0.07 ± 0.01,0.05 ± 0.02,0.25 ± 0.07,0.04 ± 0.01,0.15 ± 0.02,2.62 ± 0.24,1.47 ± 0.69,,
"COc1ccc(C2=CC(O)(c3ccc([N+](=O)[O-])cc3)N(Cc3ccccc3)C2=O)cc1 (stereo not shown) [compound 43, 1-benzyl-5-hydroxy-3-(4-methoxyphenyl)-5-(4-nitrophenyl)-1H-pyrrol-2(5H)-one]",6.23 ± 3.48,> 10,3.47 ± 0.94,,6.54 ± 0.41,2.85 ± 1.24,> 10,2.16 ± 0.05,8.57 ± 0.43,,,< 10000,
"COc1ccccc1C1=CC(O)(c2ccc([N+](=O)[O-])cc2)N(Cc2ccccc2)C1=O (stereo not shown) [compound 49, 1-benzyl-5-hydroxy-3-(2-methoxyphenyl)-5-(4-nitrophenyl)-1H-pyrrol-2(5H)-one]",> 10,> 10,4.82 ± 1.84,0.31 ± 0.03,3.47 ± 1.12,5 ± 1.79,7.94 ± 2.07,> 10,> 10,,,< 10000,
hIL-6: pure agonist hIL6 (10 ng/mL) used to induce STAT3 transcriptional activity,,,,,,,,,,,,,10.08 ± 2.41
